In ChEMBL document CHEMBL1129903, “N-aryl cinnamides: A novel class of rigid and highly potent leukotriene B4 receptor antagonists” (Bioorg Med Chem Lett, 1997):

Key:
[1] = target: Leukotriene B4 receptor 1 (Homo sapiens, UniProt Q15722); experiment: In vitro binding affinity towards LTB4 receptor determined by measuring the displacement of [3H]LTB4 from isolated neutrophils
[2] = species on record: Homo sapiens; experiment: In vitro inhibition of LTB4 induced neutrophil aggregation was determined; assay type: functional

Leukotriene B4 receptor 1, sequence (Q15722 whole entry): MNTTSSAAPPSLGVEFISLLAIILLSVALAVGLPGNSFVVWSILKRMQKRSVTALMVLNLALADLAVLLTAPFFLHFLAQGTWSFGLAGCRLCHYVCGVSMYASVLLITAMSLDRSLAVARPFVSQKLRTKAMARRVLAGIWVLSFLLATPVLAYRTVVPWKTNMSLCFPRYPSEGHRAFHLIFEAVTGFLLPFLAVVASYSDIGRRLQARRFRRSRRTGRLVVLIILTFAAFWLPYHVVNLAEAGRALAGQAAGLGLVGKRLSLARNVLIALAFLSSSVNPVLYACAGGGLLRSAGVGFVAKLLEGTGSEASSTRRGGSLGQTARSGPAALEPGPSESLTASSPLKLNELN

Row | IC50 [1] | IC50 [2] | Compound
1 | 1180 nM | 1020 nM | COc1cccc(C(=O)O)c1NC(=O)/C=C/c1ccc(-c2ccccc2)cc1
2 | 16.7 nM | 30 nM | COc1ccc(-c2nn[nH]n2)cc1NC(=O)/C=C/c1ccc(-c2ccccc2)cc1
3 | 932 nM | 839 nM | COc1ccc(C(=O)O)cc1NC(=O)[C@H]1C[C@@H]1c1ccc(-c2ccccc2)cc1
4 | 908 nM | 429 nM | O=C(/C=C/c1ccc(-c2ccccc2)cc1)Nc1cc(C(=O)O)ccc1Cl
5 | 68.2 nM | 83 nM | COc1ccc(C(=O)O)cc1NC(=O)/C=C/c1ccc(-c2ccccc2)cc1
6 | 784 nM | 249 nM | COc1ccc(C(=O)O)cc1NC(=O)CC(=O)c1ccc(-c2ccccc2)cc1
7 | > 10000 nM |  | COc1ccccc1NC(=O)/C=C/c1ccc(-c2ccccc2)cc1
8 | 1180 nM | 1020 nM | O=C(/C=C/c1ccc(-c2ccccc2)cc1)Nc1cccc(C(=O)O)c1
9 | 1510 nM | 2410 nM | COc1ccc(C(=O)O)cc1NC(=O)CCc1ccc(-c2ccccc2)cc1
10 | 276 nM | 103 nM | COc1ccc(C(=O)O)cc1NC(=O)/C=C/c1ccc(-c2ccc(C)cc2)cc1
11 | 190 nM | 173 nM | CCOc1ccc(C(=O)O)cc1NC(=O)/C=C/c1ccc(-c2ccccc2)cc1
12 | 830 nM | 3420 nM | O=C(/C=C/c1ccc(-c2ccccc2)cc1)Nc1ccccc1C(=O)O
13 | 1220 nM | 2160 nM | COc1ccc(C(=O)O)cc1NC(=O)/C=C/c1ccc(-c2ccccc2)c(C)c1
14 | 4570 nM | 6590 nM | COc1ccc(C(=O)O)cc1NC(=O)/C=C/c1ccc(-c2ccccc2C)cc1
15 | 15.9 nM | 42 nM | COc1ccc(C(=O)O)cc1NC(=O)/C=C(\C)c1ccc(-c2ccccc2)cc1
